How the values were obtained:
[1] = molecular target: Carbonic anhydrase 7 (Homo sapiens) (UniProt P43166); assay: Activation of human recombinant CA7 by CO2 hydrase assay
[2] = molecular target: Carbonic anhydrase 14 (Homo sapiens) (UniProt Q9ULX7); assay: Activation of human recombinant CA14 by CO2 hydrase assay
[3] = molecular target: Carbonic anhydrase 1 (Homo sapiens) (UniProt P00915); assay: Activation of human recombinant CA1 by CO2 hydrase assay
[4] = molecular target: Carbonic anhydrase 2 (Homo sapiens) (UniProt P00918); assay: Activation of human recombinant CA2 by CO2 hydrase assay

Sequence of Carbonic anhydrase 7 (Homo sapiens) (P43166 whole entry): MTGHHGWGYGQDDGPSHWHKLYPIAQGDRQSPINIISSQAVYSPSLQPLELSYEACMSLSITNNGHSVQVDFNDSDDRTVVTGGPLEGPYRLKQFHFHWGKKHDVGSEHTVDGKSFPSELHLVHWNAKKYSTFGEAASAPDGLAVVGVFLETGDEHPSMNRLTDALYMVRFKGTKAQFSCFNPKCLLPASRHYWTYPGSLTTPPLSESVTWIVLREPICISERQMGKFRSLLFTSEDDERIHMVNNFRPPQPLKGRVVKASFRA
Sequence of Carbonic anhydrase 1 (Homo sapiens) (P00915 2-261 limits assumed): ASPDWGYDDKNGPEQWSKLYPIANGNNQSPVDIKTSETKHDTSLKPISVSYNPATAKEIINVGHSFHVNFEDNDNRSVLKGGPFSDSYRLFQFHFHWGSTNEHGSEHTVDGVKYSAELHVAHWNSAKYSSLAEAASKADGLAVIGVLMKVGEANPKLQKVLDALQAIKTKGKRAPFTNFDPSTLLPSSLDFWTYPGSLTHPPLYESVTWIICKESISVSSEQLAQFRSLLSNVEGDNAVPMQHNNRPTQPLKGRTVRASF
Sequence of Carbonic anhydrase 14 (Homo sapiens) (Q9ULX7 whole entry): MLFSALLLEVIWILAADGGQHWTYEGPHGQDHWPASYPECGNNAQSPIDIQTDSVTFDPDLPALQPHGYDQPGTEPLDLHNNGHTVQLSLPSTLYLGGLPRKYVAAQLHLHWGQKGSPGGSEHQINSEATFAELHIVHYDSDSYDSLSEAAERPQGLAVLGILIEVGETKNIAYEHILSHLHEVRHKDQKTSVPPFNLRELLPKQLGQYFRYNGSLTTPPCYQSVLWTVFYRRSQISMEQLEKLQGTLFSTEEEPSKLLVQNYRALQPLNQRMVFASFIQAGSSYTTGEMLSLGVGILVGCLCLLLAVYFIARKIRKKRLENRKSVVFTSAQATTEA

| SMILES | KA [1] | KA [2] | KA [3] | KA [4] |
| --- | --- | --- | --- | --- |
| N[C@H](Cc1c[nH]c2ccccc12)C(=O)O | 39.6 µM | 18 µM |  |  |
| NCCc1ccc(O)c(O)c1 | 0.89 µM | 14.6 µM |  |  |
| NCCN1CCOCC1 | 64.3 µM | 5.4 µM |  |  |
| NCCc1ccccn1 | 27.8 µM | 6.9 µM |  |  |
| N[C@@H](Cc1c[nH]c2ccccc12)C(=O)O | 57.5 µM | 16.5 µM |  |  |
| Nc1ccc(C[C@H](N)C(=O)O)cc1 | 39.6 µM | 18 µM | 0.24 µM | 0.15 µM |
| NCCc1c[nH]cn1 | 37.5 µM | 0.01 µM |  |  |
| N[C@H](Cc1ccc(O)c(O)c1)C(=O)O | 58.3 µM | 36.8 µM |  |  |
| N[C@@H](Cc1ccc(O)c(O)c1)C(=O)O | 58.3 µM | 12.1 µM |  |  |
| N[C@@H](Cc1c[nH]cn1)C(=O)O | 0.92 µM | 0.9 µM |  |  |
| N[C@H](Cc1c[nH]cn1)C(=O)O | 0.71 µM | 2.37 µM |  |  |
| NCCc1c[nH]c2ccc(O)cc12 | 0.93 µM | 6.5 µM |  |  |
| NCCN1CCNCC1 | 32.5 µM | 18.3 µM |  |  |
| N[C@@H](Cc1ccc(O)cc1)C(=O)O | 20.3 µM | 21.8 µM | 0.02 µM | 0.011 µM |
| CNC[C@@H](O)c1ccc(O)c(O)c1 | 60 µM | 36.1 µM | 0.09 µM | 96 µM |
| NCc1ccccn1 | 43.7 µM | 21.7 µM |  |  |

— ChEMBL document CHEMBL1145387, “Carbonic anhydrase activators: activation of the human isoforms VII (cytosolic) and XIV (transmembrane) with amino acids and amines” (Bioorg Med Chem Lett, 2007)
